Assay results: ChEMBL document CHEMBL1201862, “PubChem BioAssay data set” (2004)
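A five-concentration, 48-hour dose response in 96-well plates underlies each endpoint, interpolated linearly between surrounding concentrations. GI50 = concentration required for 50% inhibition of growth.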 Activity calls are given as the source filed them. No stated cut-off is given here; in the data, active = GI50 up to about 1.1 µM and inactive = higher.

Assays:
Test in all cases: growth of human tumour cells (NCI), 48 h
786-0 = tested on: 786-0
A549 = tested on: A549
COLO 205 = tested on: COLO 205
K562 = tested on: K562
LOX IMVI = tested on: LOX IMVI
M14 = tested on: M14
MOLT-4 = tested on: MOLT-4
OVCAR-3 = tested on: OVCAR-3
OVCAR-8 = tested on: OVCAR-8
SK-MEL-2 = tested on: SK-MEL-2
SNB-19 = tested on: SNB-19
TK-10 = tested on: TK-10
U-251 = tested on: U-251
SK-MEL-5 = tested on: SK-MEL-5
UACC-257 = tested on: UACC-257

Row | SMILES | GI50 (786-0) | GI50 (A549) | GI50 (COLO 205) | GI50 (K562) | GI50 (LOX IMVI) | GI50 (M14) | GI50 (MOLT-4) | GI50 (OVCAR-3) | GI50 (OVCAR-8) | GI50 (SK-MEL-2) | GI50 (SNB-19) | GI50 (TK-10) | GI50 (U-251) | GI50 (SK-MEL-5) | GI50 (UACC-257)
1 | CNC(=O)OCc1c2ccncc2c(C)c2c1[nH]c1ccc(OC)cc12 | 0.156 µM (active) | 0.39 µM (active) | 0.536 µM (active) | 0.322 µM (active) | 0.256 µM (active) | 0.57 µM (active) | 0.0404 µM (active) | 0.311 µM (active) | 0.209 µM (active) | 0.181 µM (active) | 0.267 µM (active) | 0.953 µM (active) | 0.182 µM (active) |  | 
2 | O=C(/C=C/c1ccccc1)/C=C/c1ccccc1 | 30.3 µM (inactive) | > 100 µM (inactive) | > 100 µM (inactive) | 28.8 µM (inactive) | 16.8 µM (inactive) | 19.8 µM (inactive) | 20.7 µM (inactive) | 23 µM (inactive) |  | > 100 µM (inactive) |  | 58.2 µM (inactive) | 20.6 µM (inactive) | 33.1 µM (inactive) | 24.4 µM (inactive)
3 | CNS(=O)(=O)NNS(=O)(=O)c1ccccc1 | > 100 µM (inactive) | > 100 µM (inactive) | > 100 µM (inactive) | > 100 µM (inactive) | > 100 µM (inactive) | > 100 µM (inactive) | > 100 µM (inactive) | > 100 µM (inactive) | > 100 µM (inactive) | > 100 µM (inactive) | > 100 µM (inactive) | > 100 µM (inactive) | > 100 µM (inactive) | > 100 µM (inactive) | > 100 µM (inactive)
4 | C[Si](C)(C)OC1CC(=O)OC1n1cc(F)c(=O)[nH]c1=O (stereo unspecified) | 21.4 µM (inactive) | 4.38 µM (inactive) | 21 µM (inactive) | 26.4 µM (inactive) | 7.94 µM (inactive) | 48.6 µM (inactive) | 17.8 µM (inactive) | 52.8 µM (inactive) | 31.8 µM (inactive) | > 100 µM (inactive) | > 55.1 µM (inactive) | > 100 µM (inactive) | 43 µM (inactive) | > 100 µM (inactive) | > 64.3 µM (inactive)
5 | Cc1nc2c(s/c(=N\N)n2-c2ccccc2)c(=O)n1C | > 100 µM (inactive) | > 100 µM (inactive) | > 100 µM (inactive) | > 100 µM (inactive) | > 100 µM (inactive) | > 100 µM (inactive) | > 100 µM (inactive) |  | > 100 µM (inactive) | > 100 µM (inactive) | > 100 µM (inactive) | > 100 µM (inactive) | > 100 µM (inactive) | > 100 µM (inactive) | > 100 µM (inactive)
6 | C/C=C1\CN2CCc3c([nH]c4ccccc34)C2C=C1CCO (stereo unspecified) | > 340 µM (inactive) | > 340 µM (inactive) | > 340 µM (inactive) | > 340 µM (inactive) | > 340 µM (inactive) |  | > 340 µM (inactive) | 231 µM (inactive) | > 340 µM (inactive) | > 340 µM (inactive) | > 340 µM (inactive) | > 340 µM (inactive) | > 340 µM (inactive) | > 340 µM (inactive) | > 340 µM (inactive)
7 | O=C1C(=O)C(Br)(Br)C(Br)=C1Br | 16.4 µM (inactive) | 37.4 µM (inactive) | 17.1 µM (inactive) | 20 µM (inactive) | 13.7 µM (inactive) | 17.6 µM (inactive) | 24.4 µM (inactive) | 15.5 µM (inactive) | 17.3 µM (inactive) | 17.1 µM (inactive) | 68.9 µM (inactive) | 19.4 µM (inactive) | 25.2 µM (inactive) | 15.4 µM (inactive) | 20.3 µM (inactive)
8 | Cc1ccc(NC(=O)COC(=O)c2cccc3c(=O)c4ccccc4[nH]c23)cc1 | 28.4 µM (inactive) | 36.6 µM (inactive) | 21.9 µM (inactive) | 32.7 µM (inactive) | 16.9 µM (inactive) | 68.5 µM (inactive) | 13.6 µM (inactive) | 54 µM (inactive) | 35.3 µM (inactive) |  | 40.6 µM (inactive) | 22 µM (inactive) | 29.4 µM (inactive) | 21.6 µM (inactive) | 39.9 µM (inactive)
9 | O=C(OCCOCCOC(=O)c1c[nH]cc1-c1ccccc1)c1c[nH]cc1-c1ccccc1 | 25.9 µM (inactive) | 22.2 µM (inactive) | 19.8 µM (inactive) | 28.9 µM (inactive) | 16.4 µM (inactive) | 14.8 µM (inactive) | 17.9 µM (inactive) | 22.1 µM (inactive) | 29.4 µM (inactive) |  | 24.3 µM (inactive) | 30.3 µM (inactive) | 17.9 µM (inactive) | 16.8 µM (inactive) | 18.7 µM (inactive)
10 | COC1OC(COS(=O)(=O)c2ccc(C)cc2)C(O)C(OS(=O)(=O)c2ccc(C)cc2)C1OS(=O)(=O)c1ccc(C)cc1 (stereo unspecified) | > 100 µM (inactive) | > 100 µM (inactive) | > 100 µM (inactive) | > 100 µM (inactive) |  | > 100 µM (inactive) | > 100 µM (inactive) | > 100 µM (inactive) | > 100 µM (inactive) | > 100 µM (inactive) | > 100 µM (inactive) |  | > 100 µM (inactive) | > 100 µM (inactive) | > 100 µM (inactive)
11 | C=C1C(C)C2C(Cc3ccccc3)NC(=O)C23OC(=O)/C=C\CC(=O)CCC(C)C/C=C/C3C1O (stereo unspecified) | 0.438 µM (active) | 4.41 µM (inactive) | 1.34 µM (inactive) | 0.757 µM (active) | 0.875 µM (active) |  | 0.91 µM (active) | 1.82 µM (inactive) | 2.54 µM (inactive) | 1.58 µM (inactive) | 2.6 µM (inactive) | 0.0834 µM (active) | 2.54 µM (inactive) | 3.71 µM (inactive) | 1.36 µM (inactive)
12 | CCOC(=O)NC(=O)c1cn(CCOCCOC(=O)NCCCCCCNC(=O)OCCOCCn2cc(C(=O)NC(=O)OCC)c(=O)[nH]c2=O)c(=O)[nH]c1=O | > 100 µM (inactive) | > 100 µM (inactive) | > 100 µM (inactive) | > 100 µM (inactive) | > 100 µM (inactive) | > 100 µM (inactive) |  | > 100 µM (inactive) | > 100 µM (inactive) | > 100 µM (inactive) | > 100 µM (inactive) | > 100 µM (inactive) | > 100 µM (inactive) | > 100 µM (inactive) | > 100 µM (inactive)
13 | N#CNc1nc(N)c(-c2ccc(Cl)cc2)c(C(=O)Nc2nccs2)n1 | > 100 µM (inactive) | > 100 µM (inactive) |  | > 100 µM (inactive) | > 100 µM (inactive) | > 100 µM (inactive) | > 100 µM (inactive) | > 100 µM (inactive) | > 100 µM (inactive) | > 100 µM (inactive) | > 100 µM (inactive) | > 100 µM (inactive) | > 100 µM (inactive) | > 100 µM (inactive) | > 100 µM (inactive)
14 | NS(=O)(=O)c1ccc(NC(=O)c2cccc3c(Nc4ccc(S(N)(=O)=O)cc4)c4ccccc4nc23)cc1 | 25.3 µM (inactive) | > 100 µM (inactive) | 54.5 µM (inactive) | 11.3 µM (inactive) | 5.55 µM (inactive) | > 100 µM (inactive) | 4.5 µM (inactive) | 13.6 µM (inactive) | 48.5 µM (inactive) | 20 µM (inactive) | 30.8 µM (inactive) | > 100 µM (inactive) | 21.2 µM (inactive) | 41.2 µM (inactive) | 32.9 µM (inactive)
15 | CCO/C([O-])=C(\C(=O)c1ccccc1)[n+]1c(C)n(C)c2ccccc21 | > 100 µM (inactive) | > 100 µM (inactive) | > 100 µM (inactive) | > 100 µM (inactive) | > 100 µM (inactive) | > 100 µM (inactive) | > 100 µM (inactive) | > 100 µM (inactive) | > 100 µM (inactive) | > 100 µM (inactive) | > 100 µM (inactive) | > 100 µM (inactive) | > 100 µM (inactive) | > 100 µM (inactive) | > 100 µM (inactive)
16 | CC(=O)n1c2ccccc2c2nc3nc(Oc4ccc(C)cc4)c4ccccc4c3cc21 | 65.8 µM (inactive) | > 100 µM (inactive) | > 100 µM (inactive) | > 100 µM (inactive) | > 100 µM (inactive) | > 100 µM (inactive) | > 100 µM (inactive) | > 100 µM (inactive) | > 100 µM (inactive) | > 100 µM (inactive) | 92 µM (inactive) |  | 41.6 µM (inactive) | > 100 µM (inactive) | > 100 µM (inactive)
17 | COC(=O)c1ccc(Cl)cc1NC(=O)C1CCCCC1 | > 100 µM (inactive) | > 100 µM (inactive) | > 100 µM (inactive) | > 100 µM (inactive) |  |  | > 100 µM (inactive) | > 100 µM (inactive) | > 100 µM (inactive) | > 100 µM (inactive) | > 100 µM (inactive) | 40 µM (inactive) | > 100 µM (inactive) |  | > 100 µM (inactive)
18 | C1C[N+]23CCC[N+]2(C1)CCC3 (stereo unspecified) | > 100 µM (inactive) | > 100 µM (inactive) | > 100 µM (inactive) | > 100 µM (inactive) | > 100 µM (inactive) | > 100 µM (inactive) | > 100 µM (inactive) | > 100 µM (inactive) | > 100 µM (inactive) | > 100 µM (inactive) | > 100 µM (inactive) | > 100 µM (inactive) | > 100 µM (inactive) | > 100 µM (inactive) | > 100 µM (inactive)
19 | O=C1CCC2(c3ccc(Cl)cc3)Nc3cc(Cl)ccc3N12 (stereo unspecified) | 10.2 µM (inactive) | 11.5 µM (inactive) | 4.7 µM (inactive) | 2.31 µM (inactive) | 12.1 µM (inactive) | 15.2 µM (inactive) |  | 10.4 µM (inactive) | 7.76 µM (inactive) | 11.4 µM (inactive) | 16.4 µM (inactive) |  | 11.7 µM (inactive) | 12.4 µM (inactive) | 13.6 µM (inactive)
